Data published in publication PMC5198017, “The Influence of Solid Microneedles on the Transdermal Delivery of Selected Antiepileptic Drugs” (Pharmaceutics, 2016).
Structures can show the parent of a compound that is named as a salt. Where two headings read alike, the source gives them in different places.

Legend:
[1] = In vitro diffusion studies with vertical Franz diffusion cells across untreated and microneedle-treated skin; type: in vitro ADME, pig; settings: for Transdermal flux, Microneedle: 500 μm microneedle roller-treated porcine ear skin; for Transdermal flux, Microneedle / Transdermal flux, Passive: 12 h, ± SD, n = 6; for Transdermal flux, Passive: untreated porcine ear skin; for Statistical significance of difference in flux, untreated versus microneedle-treated skin: porcine skin, carbamazepine as 20% and 30% ethanol solutions, p < 0.05 considered significant
Description: Pig ears were purchased from Pel-Freez Arkansas LLC (Rogers, AR, USA). Upon arrival, ears were shaved with an electric hair clipper. Full-thickness skins were obtained by using a scalpel to remove subcutaneous fat from ear cartilage. An electric dermatome (Nouvag®, Goldach, Switzerland) was used to prepare split-thickness skins. The thickness of the skin samples was determined with the Digimatic micrometer (Mitutoyo, Tokyo, Japan). Skin membranes were wrapped in aluminum foil and stored at -20 °C until ready for use. Experiments were approved by the Institutional Animal Care and Use Committee (IACUC) and Institutional Biosafety Committee (IBC) of Touro University, Mare Island-Vallejo, CA, USA. Microchannels were created on porcine skins using solid microneedle rollers and skin samples were then clamped to the diffusion cells. The roller was applied to the pig ear skin 15 times (five times in the vertical, horizontal and diagonal directions). The roller was applied with a force of 5 kg (measured with a weighing balance) for approximately 1 min per application. Three microneedle-treated split-thickness skin (STS) samples were used for the experiment while three untreated skin samples served as controls. […] The drug was placed on porcine skin. The pig skin was sandwiched between the donor and receptor compartments of Franz diffusion cells. The donor compartment and covered with parafilm and aluminum foil to reduce evaporation. The sampling ports were also sealed. […] Extractions were stored in 2 mL amber vials from Agilent Technologies (Agilent, Santa Clara, CA, USA) and stored at -8 °C until shipment to the University of Idaho for analysis. Receptor chambers were replenished after each extraction with 1 mL of fresh, pre-warmed PBS maintained at 37 °C. We carried out in vitro diffusion studies with six vertical Franz Diffusion cells (PermeGear, Hellertown, PA, USA). Each cell has donor compartments and receptor compartments. In each cell, there is a magnetic stirrer, sampling port, and a water jacket maintained at a 37 °C model human body temperature. The receptor compartment has a diffusion area of 1.77 cm^2 and the volume is 12 mL. The receptor compartment was filled with PBS, and we utilized high-vacuum grease (Dow Corning, Midland, MA, USA) and a metal clamp to prevent loss of the drug solution through lateral diffusion. HPLC analysis was performed using an Agilent 1200 Series HPLC system with a diode array detection (DAD) system coupled to an Agilent […] TOF-MS system equipped with an ESI source (Agilent, Santa Clara, CA, USA). […] The injection volume was 5 μL. The mobile phase comprised of 0.1% formic acid in water (solvent A) and 0.1% formic acid in methanol (solvent B). We first used a linear gradient from 15% to 95% B in 7 min, and then isocratic elution was carried out at 95% B for 2 min. The final equilibration was conducted at 15% B for 5 min. We diverted the flow from the mass spectrometer for the first 3 min of the analysis, in order to prevent MS contamination and ion suppression. The flow rate was 0.3 mL·min^-1. The average cumulative amount of drug permeation through porcine skin was plotted as a function of time. Steady-state flux was calculated from the linear portion of the average cumulative amount versus time curve. Six replicates were utilized for each drug. […] (1) […] Statistical analysis was performed using GraphPad Prism 7 (GraphPad Software, Inc., La Jolla, CA, USA). The Mann-Whitney Rank Sum test was carried out to determine statistical significance. […] The average of replicate measurements (n = 6) with corresponding standard deviation was used to plot the graphs.

[2] = cited from earlier work
[3] = cited from earlier work; remark: listed apart in the source
[4] = cited from earlier work; remark: listed apart in the source
[5] = parameters: method as in PMID 23454133; settings: after application of nanostructured lipid carriers; cited from earlier work
[6] = carbamazepine 1 mg/mL in 20% ethanol/PBS, listed as Carbamazepine in 20% ethanol
[7] = carbamazepine 1 mg/mL in 30% ethanol/PBS
[8] = tiagabine hydrochloride 5 mg/mL in PBS

Transdermal flux, Microneedle [1, 6] [µg/cm^2/h] | Transdermal flux, Passive [1, 6] [µg/cm^2/h] | Transdermal flux, Microneedle [1, 7] [µg/cm^2/h] | Transdermal flux, Passive [1, 7] [µg/cm^2/h] | Statistical significance of difference in flux, untreated versus microneedle-treated skin [1] | Transdermal flux, Microneedle [1, 8] [µg/cm^2/h] | Transdermal flux, Passive [1, 8] [µg/cm^2/h] | Flux Increase ([1]; tiagabine hydrochloride in PBS, microneedle versus passive) [fold] | SMILES | Partition coefficient [2] | Clearance [3] [mL/min/kg] | Excreted in urine unchanged [3] [%] | Aqueous solubility ([4]; at 32 °C in phosphate buffer saline of pH 7.4) [µg/mL] | Transdermal flux enhancement [5] | Partition coefficient ([2]; tiagabine hydrochloride) | Blood–brain barrier passage ([3]; after drug administration) | Unchanged when excreted as urine [3] | Volume of distribution [3] [L/kg] | Aqueous solubility ([4]; tiagabine hydrochloride) [µg/mL]
10.85 ± 0.11 | 7.85 ± 0.60 | 36.73 ± 1.83 | 30.74 ± 1.32 | not statistically significant | – | – | – | NC(=O)N1c2ccccc2C=Cc2ccccc21 [Carbamazepine, carbamazepine] | 2.7 ± 0.3 | 1.87 ± 0.245 | 1 | 440.6 ± 20.6 | – | – | – | – | – | –
– | – | – | – | – | – | – | – | Cc1cc2c(s1)Nc1ccccc1N=C2N1CCN(C)CC1 [olanzapine] | – | – | – | – | did not observe significant transdermal flux enhancement | – | – | – | – | –
– | – | – | – | statistically significant | 86.42 ± 25.66 | 12.83 ± 6.30 | 6.74 | Cc1ccsc1C(=CCCN1CCC[C@@H](C(=O)O)C1)c1sccc1C [Tiagabine hydrochloride, tiagabine hydrochloride] | – | – | – | – | – | 2.6 | readily cross the blood–brain barrier | less than 1% | 1 | 10000
